Measurements reported in patent US20250281378A1, “PEPTIDE HAVING ACTIVITY OF PREVENTING HAIR LOSS OR PROMOTING HAIR GROWTH AND USE THEREOF” (CAREGEN CO., LTD., priority 2021, published 2025).

How the values were obtained:
[1] = test system: human hair follicle dermal papilla cells (HHFDPC); assay: Proliferation of dermal papilla cells (MTT, absorbance at 540 nm); format: cell-based; details: peptide 500 nM, 5 μM, and 50 μM, 72 hours, compared to the untreated control group, FIG. 1
Experimental: While culturing human hair follicle dermal dermal papilla cells (HHFDPC), the absorbance was measured after treatment with the peptide of the present invention to confirm whether there was an effect of promoting the proliferation of the HHFDPC dermal papilla cells.
Specifically, HHFDPC (Sciencell, USA) was seeded at 4×10^3 cells/well in a 96-well culture plate, cultured in MSC complete medium (mesenchymal stem cell complete media, Sciencell, USA) for 24 hours, and then the medium was replaced with serum free MSC complete medium and cultured for another 24 hours. Then, the HHFDPC was treated with the peptide of SEQ ID NO: 1 prepared in the Preparation Example at concentrations of 500 nM, 5 μM, and 50 μM, respectively, and cultured at 37° C. for 72 hours. As a positive control, minoxidil was treated at a concentration of 1 μM, and as a negative control, HHFDPC without any treatment was used. Then, 10 ? of 5 mg/ml MTT solution was added and cultured in a 37° C. CO2 incubator for 4 hours to stain the cells. After removing the medium, the cells were treated with 100 μl of DMSO and shaken for 10 minutes, and the number of HHFDPC cells was confirmed by measuring absorbance at a wavelength of 540 nm using a spectrophotometer.

p-AKT = assay: Western blotting of phosphorylated AKT in HHFDPC; format: cell-based, human; details: peptide 500 nM, 5 μM, and 50 μM, 24 hours, vs control group not treated, FIG. 2
Experimental: (§1) First, phosphorylated forms of AKT and ERK, which act as signaling molecules related to the proliferation of HHFDPC, were confirmed through Western blotting. Specifically, HHFDPC as in [Experiment Example 1-1] above was seeded at 4×10^5 cells/well in a 6-well culture plate, cultured in MSC complete medium (mesenchymal stem cell complete media) for 24 hours, and then the medium was replaced with serum free MSC complete medium and cultured for another 24 hours. Then, the HHFDPC was treated with the peptide of SEQ ID NO: 1 prepared in the Preparation Example at concentrations of 500 nM, 5 μM, and 50 μM, respectively, and cultured at 37° C. for 24 hours. As a positive control, minoxidil was treated at a concentration of 1 μM, and as a negative control, HHFDPC without any treatment was used. Then, Western blotting was performed to detect phosphorylated AKT and phosphorylated ERK. After washing with PBS, the cells were treated with 100 ? of lysis buffer to destroy cells, thereby obtaining cell lysate. After electrophoresis using a 10% SDS-PAGE gel, it was transferred to a PVDF membrane and blocked using 5% skim milk at room temperature for 30 minutes. […] After washing again with 0.1% PBS-T (0.1% Tween-20 in PBS) three times for 15 minutes each, p-AKT and p-ERK were detected by treatment with ECL solution (GE Healthcare, USA).

p-ERK = assay: Western blotting of phosphorylated ERK in HHFDPC; format: cell-based, human; details: peptide 500 nM, 5 μM, and 50 μM, 24 hours, vs control group not treated, FIG. 2
Experimental: as §1

β-catenin = assay: Western blotting of β-catenin moved to the nucleus in HHFDPC; format: cell-based, human; details: HHFDPC nuclear proteins, peptide 500 nM, 5 µM, and 50 μM, 24 hours, vs control group not treated, FIG. 3
Experimental: In addition, in addition to p-AKT and p-ERK, in order to confirm the activation of β-catenin, which is known to affect cell proliferation and differentiation, whether β-catenin moved into the nucleus was confirmed through Western blotting. Specifically, the HHFDPC as in [Experiment Example 1-1] was seeded in a 6-well culture plate at an amount of 4×10^5 cells/well, cultured in MSC complete medium (mesenchymal stem cell complete media) for 24 hours. Next, the medium was replaced with serum free MSC complete medium and cultured again for 24 hours. Then, the HHFDPC was treated with the peptide of SEQ ID NO: 1 prepared in the Preparation Example at concentrations of 500 nM, […], and 50 μM, respectively, and cultured at 37° C. for 24 hours. As a positive control, minoxidil was treated at a concentration of 1 μM, and as a negative control, HHFDPC without any treatment was used. After washing with PBS, proteins in the nucleus were isolated using a nuclear protein extraction kit (Thermo scientific, USA). After electrophoresis using a 10% SDS-PAGE gel, it was transferred to a PVDF membrane and blocked using 5% skim milk at room temperature for 30 minutes. […] After washing again with 0.1% PBS-T (0.1% Tween-20 in PBS) three times for 15 minutes each, β-catenin was detected by treatment with ECL solution (GE Healthcare, USA).

LEF-1 = assay: RT-PCR of LEF-1 expression in HHFDPC; format: cell-based, human; details: peptide 500 nM, 5 μM, and 50 µM, 24 hours, vs control group without any treatment, FIG. 4
Experimental: (§2) Furthermore, in order to determine whether the β-catenin moves to the nucleus and is activated to affect proliferation and differentiation, whether the expression of LEF-1, c-Myc and cyclin D1 (cyclin D1), which act as downstream factors, increases with β-catenin activation was confirmed through RT-PCR. Specifically, in the same manner as the previous Western blotting experiment, HHFDPC cells were cultured, treated with the peptides prepared in the Preparation Example of the present invention at concentrations of 500 nM, 5 μM, and 50 µM, respectively, and cultured at 37° C. for 24 hours. After washing the cells with PBS, RNA was isolated by treating them with 300 […] of easy blue (intron, Korea). Then, CDNA was synthesized using a cDNA synthesis kit (enzynomics, Korea) by quantifying it with nano drop, and PCR was performed using primers for LEF-1, c-Myc and cyclin D1 (sequences of the primers are listed in Table 2 below) and PCR premix (enzynomics, Korea). Electrophoresis was performed on a 1.5% agarose gel, and then the mRNA of LEF-1, c-Myc and cyclin D1 was detected using a band analysis system (Bio-Rad gel image system).

c-Myc = assay: RT-PCR of c-Myc expression in HHFDPC; format: cell-based, human; details: peptide 500 nM, 5 μM, and 50 µM, 24 hours, vs control group without any treatment, FIG. 4
Experimental: as §2

cyclin D1 = assay: RT-PCR of cyclin D1 expression in HHFDPC; format: cell-based, human; details: peptide 500 nM, 5 μM, and 50 µM, 24 hours, vs control group without any treatment, FIG. 4
Experimental: as §2

DKK-1 protein = assay: Western blotting of DKK-1 protein in DHT-treated HHFDPC; format: cell-based, human; details: HHFDPC with DHT 100 nM, peptide 500 nM, 5 μM, and 50 μM, 24 hours, vs negative control (DHT only), FIG. 5
Experimental: DKK-1 protein (dickkopf-related protein 1) is a hair loss-related protein known to be highly expressed in individuals with hair loss, especially male pattern hair loss, and its expression is known to be promoted by hormones such as DHT (Dihydrotestosterone). Accordingly, the expression of DKK-1 protein was induced by treating HHFDPC cells with DHT together with the peptide according to the Preparation Example of the present invention, and then the expression level of DKK-1 was measured through Western blotting to determine whether there was an effect of suppressing the expression of DKK-1 protein.
Specifically, as in [Experiment Example 1-1] above, HHFDPC was seeded in a 6-well culture plate at 4×10^5 cells/well and then cultured in MSC complete medium (mesenchymal stem cell complete media) for 24 hours. Next, the medium was replaced with serum free MSC complete medium and cultured again for 24 hours. […] After washing again with 0.1% PBS-T (0.1% Tween-20 in PBS) three times for 15 minutes each, DKK-1 protein was detected by treatment with ECL solution (GE Healthcare, USA).

Keratin 14 = assay: RT-PCR of Keratin 14 expression in HHORSC; format: cell-based, human; details: peptide 500 nM, 5 μM, and 50 μM, 72 hours, vs control group without treatment, FIG. 6
Experimental: (§3) Specifically, HHORSC (human hair outer root sheath cell, Sciencell, USA) was seeded in a 6-well culture plate at 4×10^5 cells/well and then cultured in MSC complete medium (mesenchymal stem cell complete media) for 24 hours. Next, the medium was replaced with serum free MSC complete medium and cultured again for 24 hours. Then, the HHORSC was treated with the peptide of Preparation Example consisting of amino acid sequence of SEQ ID NO: 1 at concentrations of 500 nM, 5 μM, and 50 μM, respectively, and cultured at 37° C. for 72 hours. As a positive control, EGF was treated at a concentration of 50 nM, and as a negative control, HHORSC without any treatment was used. After washing with PBS, RNA was isolated by treating with 300 ? of easy blue (intron, Korea). Then, CDNA was synthesized using a cDNA synthesis kit (enzynomics, Korea) by quantification using nano drop, and PCR was performed using primers for Keratin 14 and Keratin 19 (base sequences of each primer are listed in Table 3 below) and PCR premix (enzynomics, Korea). Electrophoresis was performed on a 1.5% agarose gel, and the mRNAs of Keratin 14 and Keratin 19 were detected using a band analysis system (Bio-Rad gel image system).

Keratin 19 = assay: RT-PCR of Keratin 19 expression in HHORSC; format: cell-based, human; details: peptide 500 nM, 5 μM, and 50 μM, 72 hours, vs control group without treatment, FIG. 6
Experimental: as §3

MSX2 = assay: RT-PCR of MSX2 expression in HHGMC; format: cell-based, human; details: peptide 500 nM, 5 μM, and 50 μM, 72 hours, vs untreated control group, FIG. 7
Experimental: Specifically, HHGMC (human hair germinal matrix cell, Sciencell, USA) was seeded in a 6-well culture plate at 4×10^5 cells/well and then cultured in MSC complete medium (mesenchymal stem cell complete media) for 24 hours. Next, the medium was replaced with serum free MSC complete medium and cultured again for 24 hours. Then, the HHGMC was treated with the peptide of SEQ ID NO: 1 prepared in the Preparation Example at concentrations of 500 nM, 5 μM, and 50 μM, respectively, and cultured at 37° C. for 72 hours. As a positive control, EGF was treated at a concentration of 50 nM, and as a negative control, HHGMC without any treatment was used. After washing with PBS, RNA was isolated by treating with 300 ? of easy blue (intron, Korea). Next, cDNA was synthesized using a cDNA synthesis kit (enzynomics, Korea) by quantification using nano drop, and PCR was performed using primers for MSX2 (base sequences of the primers are listed in Table 4 below) and PCR premix (enzynomics, Korea). Electrophoresis was performed on a 1.5% agarose gel, and MSX2 mRNA was detected using a band analysis system (Bio-Rad gel image system).

KLQEHLDM [peptide of the present invention]
proliferation of HHFDPC (absorbance, MTT) [1]: proliferation of HHFDPC was promoted depending on the concentration of the treated peptide
phosphorylation of AKT (p-AKT) (p-AKT): phosphorylation was found to be increased compared to the control group
phosphorylation of ERK (p-ERK) (p-ERK): phosphorylation was found to be increased compared to the control group
β-catenin moved to the nucleus (activation of β-catenin) (β-catenin): migration due to activation of β-catenin increased
amount of LEF-1 mRNA (LEF-1): the amount of mRNA increased further compared to the control group
amount of c-Myc mRNA (c-Myc): the amount of mRNA increased further compared to the control group
amount of cyclin D1 mRNA (cyclin D1): the amount of mRNA increased further compared to the control group
amount of DKK-1 protein (DKK-1 protein): the amount of DKK-1 protein was found to be reduced
amount of Keratin 14 mRNA (Keratin 14): the amount of mRNA increased further compared to the control group
amount of Keratin 19 mRNA (Keratin 19): the amount of mRNA increased further compared to the control group
amount of MSX2 mRNA (MSX2): the amount of mRNA increased further compared to the untreated control group
